The results in this text go back to US20180235213A1, “PLANT HORMONE APPLICATION” (The State of Israel Ministry of Agriculture & Rural …, priority 2015, published 2018).

Entries after “also recorded” stand apart in the source; their conditions may differ.

For series [1], the system named is Orobanche aegyptiaca seeds. Nature of the series: Orobanche Germination Assay (biological activity after stress treatments). It counts as in vivo. The note with it: with vs without HPC. On the procedure: The implementation of the strigolactone analogs necessitates a degree of material stability, to ensure their activity on the plant under various growth conditions. Accordingly, the stability of the strigolactone analog GR24 was tested under different environmental conditions. GR24 in acetone stock solution of 5.6 mM was diluted in double distilled water (DDW) or HPC pre-made gel to a concentration of 0.56 μM in eppendorf tubes and was subjected to the following treatments:
GR24 solutions of 0.56 μM, diluted either in DDW or in HPC pre-made gel in eppendorf tubes were incubated in a dry block heater at temperatures of 4° C., 20° C., 40° C., 60° C. digitally set for periods of 3 h, 1 d, 2 d, 4 d, 5 d and 7 d under ambient light.
GR24 solutions of 0.56 μM, diluted either in DDW or in HPC pre-made gel, each in quartz tubes (15 replicates for each treatment) were exposed to UV radiation of λ=312 nm under UV lamp of 600 or 857 μE intensity for periods of 15 min, 30 min or 18 h.
Biological activity was determined by Orobanche Germination Assay: Approximately 30 to 50 seeds of Orobanche aegyptiaca were spread on a glass fiber filter paper disk (9-mm diameter) and put into sterile petri dishes (9-cm diameter) lined with Whatman filter paper wetted with 3 mL of demineralized water. Petri dishes were sealed with parafilm and incubated at 27° C. for preconditioning. After one week of preconditioning period, the glass fiber filter paper disks with Orobanche seeds were removed from the petri dish and dried for 20 min to remove surplus moisture. The disks were transferred to another petri dish within a filter paper ring (outer diameter of 9 cm; inner diameter of 8 cm) wetted with 0.9 mL of water, which maintained a moist environment during the germination bioassay. Forty microliters of the GR24 test solutions were added to the disks. Untreated GR24 at a 0.56 μM concentration was used as a positive control, water or HPC pre-made gel as negative controls. Germination percent was calculated using the counter cell analysis of the IMAGEJ (http://www.//rsbweb.nih.gov/ij/) software. Germinated seeds were distinguished from non-germinated seeds according to the seedling radicles, which are a few millimeters long and visible under a stereomicroscope (Leica MZFLIII, Leica Microsystems, GmbH).
For each of the GR24 treatments fifteen replicates with 30-40 seeds were tested per treatment with 40 μl of 0.56 μM GR24 test solutions pre-treated as described above. The experiment was repeated three times (n=450 seeds).
Next, GR24 was stabilized with Hydroxypropyl Cellulose (HPC), which is a […] medium. Granular HPC [Sigma-Aldrich Israel Ltd., CAS-No. 9004-64-2] […]

Another series relates to Almond. Nature of the series: EGO10 granules and collar application to almond in commercial nursery. The series is classed as in vivo, Prunus dulcis. On the procedure: Two replicates on experiments were performed in commercial nursery.
Another series deals with olive cuttings. Nature of the series: Plate bioassay of bud outgrowth in olive cuttings. It counts as in vivo, Olea europaea L. As to the method:
For the purpose of determining whether the active SL analogs may be used as effective repressors of shoot branching by application on the stem itself, a bioassay examining SL analogs effect on shoot branching in vitro was established. Olive seedlings were grown in greenhouse under controlled temperature of 23° C. Partitioned plates containing ½ Murashige and Skoog (MS) solidified with 1.5% w/v agar were prepared. After solidification, the center plastic area (2 cm) of the plate was removed by scalpel. Olive seedlings were cut between the second and fourth node, and the cuttings were surface-sterilized by 70% ethanol and 1% sodium hypochlorite treatment, and then placed on the plates containing the agar media. The SL analog EGO10 was mixed with ½MS in agar, cubes were cut (1.5 cm area) and positioned at the base of the cutting in the plates (FIG. 4A). Olive seedlings treated with acetone at the same concentrations used in the EGO10 treatments represented the experimental controls. Plates were sealed in two sides only by saran wrap in order to prevent accumulation of gases. The plates were positioned in an upright 90° position and incubated at 22° C. under a photoperiod of 16 hours light followed by 8 hours dark. Photographs were taken every 3 days until day 12 by binocular. Each treatment included eight replicates. […] Bud outgrowth was measured (FIG. 4C) by Image J software and the length of the bud minus its length at the first day following application was calculated. Means of replicates were subjected to statistical analysis by using the IMP statistical package.
The ability of EGO10, applied to olive seedling cuttings through the bark of the stem, to reduce bud outgrowth was examined. An agar tube containing EGO10 was placed on the bark of the cutting (FIG. 6A). Additionally, for increased penetration of the hormone analog, the bark was scratched and the ability of EGO10 to reduce bud outgrowth in comparison to EGO10 application to non-scratched bark was tested.
As a next step in the development of SL application technology, different substances that can serve as media supporting the diffusion of SLs though the bark of plants were examined. As agar usually contains nutritional compounds, bacteria and fungi can easily contaminate agar cubes. Therefore, other substances were examined, as described hereinbelow. Experiments were performed similarly to those described in Example 3 above, by application of EGO10 in different media on the cutting bark, in plates. Bud outgrowth was monitored as described above.
Based on the results above, 30% HPC were mixed with two different concentrations of EGO10; 5 and 10 μM, and applied on the stem of olive seedling (FIG. 10). Bud outgrowth was monitored as described above and the results were compared to those obtained upon using agar cubes (described in Example 3), which served as a positive control.
In an attempt to improve HPC suitability to the examined system, HPC was mixed with glycerin in the ratio of 3:1. Glycerin, as a known humectant, has the capability to moist materials. In exemplary procedures, 5 μM EGO10 were added to the HPC and glycerin mixture, and then placed on the bark of olive cuttings. Bud outgrowth was monitored as described above.
A number of additional possible substances suitable as media for EGO10 application were screened, including polyvinyl acetate (PVAc), polyvinyl pyrrolidone (PVP) and hydroxy ethyl cellulose (HEC). The polymers were used at concentrations of 30% in water, however, as 30% PVP was not solid, it could not be tested. Accordingly, HEC and PVAc were examined for their ability to support EGO10 activity. Bud outgrowth was calculated as described above.

In the case of `CC1=C[C@H](O/C=C2\Cc3c(n(C)c4ccccc34)C2=O)OC1=O` [EGO10], the “Orobanche germination % with HPC at 60° C.” value in series [1] (60° C., 0 and 24 hours) was “increased biological activity”. In series [1] (basic and acidic pH (pH 4, pH 7, pH 10)), the “Orobanche germination % with HPC at different pH” value was “increased biological activity”. The “number of axillary branches” value was “marked and significant reduction in the number of axillary branches” with Almond (3×10^−8 M as granules of controlled release); “reduced the inhibitory effect of the granules on side branches” with Almond (both granules and collar). The bud outgrowth entry was “did not” in the series with olive cuttings (5 μM in 30% HEC on the bark); “supported EGO10 activity of bud outgrowth inhibition” in the series on olive cuttings (5 μM in 30% PVAc on the bark); “inhibited bud outgrowth throughout the experimental period” in the series with olive cuttings (5 μM in HPC mixed with glycerin (3:1) on the bark, until day 12); “did not sufficiently support EGO10 ability to act to inhibit bud outgrowth” with olive cuttings (5 μM in PVA:HEC (2:1) on the bark); “did not sufficiently support EGO10 ability to act to inhibit bud outgrowth” in the series with olive cuttings (5 μM in PVA:PVP (2:1) on the bark); “marked reduction in bud outgrowth” in the series with olive cuttings (5 μM in agar cube at the base of the cutting, day 12, vs acetone control). For the same compound, the bud outgrowth entry in the series on olive cuttings (5 μM in agar cube on the bark, 96, 168 and 264 h, vs acetone control) was “significant reduction in bud outgrowth; also recorded: reduced bud outgrowth throughout the entire experimental period”; in the series with olive cuttings (5 and 10 μM in 30% HPC on the stem), “reduced bud outgrowth until day 4 post application”.
